According to PubChem BioAssay (NCI):
“And” between values parts separate entries of the source, which are not always exact repeats. Equal values may be shown once.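 Briefly, cells in 96-well plates were exposed to five compound concentrations for 48 h, and endpoints were estimated by linear interpolation. GI50 is the concentration that inhibits growth by half. TGI is the concentration that stops growth completely.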

Legend:
Assay in all cases: NCI-60 cell line screen, 48 h
BT-549 breast = system: BT-549 breast
SF-539 CNS = system: SF-539 CNS
MDA-MB-435 = system: MDA-MB-435
PC-3 prostate = system: PC-3 prostate
HOP-18 NSCLC = system: HOP-18 NSCLC
DMS 273 small cell lung = system: DMS 273 small cell lung
KM20L2 colon = system: KM20L2 colon
M19-MEL melanoma = system: M19-MEL melanoma
DMS 114 small cell lung = system: DMS 114 small cell lung

| SMILES | GI50 (BT-549 breast) | TGI (BT-549 breast) [µM] | GI50 (SF-539 CNS) | TGI (SF-539 CNS) [µM] | GI50 (MDA-MB-435) | TGI (MDA-MB-435) [µM] | GI50 (PC-3 prostate) | TGI (PC-3 prostate) [µM] | TGI (HOP-18 NSCLC) [µM] | TGI (DMS 273 small cell lung) [µM] | TGI (KM20L2 colon) [µM] | TGI (M19-MEL melanoma) [µM] | TGI (DMS 114 small cell lung) [µM] |
| --- | --- | --- | --- | --- | --- | --- | --- | --- | --- | --- | --- | --- | --- |
| C=C1C(=O)O[C@H]2[C@H]1CC/C(COC(=O)c1ccc(C(=O)O)s1)=C\CC[C@@]1(C)O[C@@H]21 | 1.72 µM | 4.85 | 1.62 µM | 3.04 | 1.92 µM | 4 | 2.9 µM | 11.4 |  |  |  |  |  |
| O=C1NC(=O)C(c2ccccc2Cl)=C1Nc1cccc(O)c1 | 9.62 µM | > 25 | 8.93 µM | > 25 |  |  | 11.3 µM | > 25 |  |  |  |  |  |
| CC1=CC[C@@H]2C(C)(C)[C@@H](O)CC[C@@]2(C)[C@@H]1COc1ccc2ccc(=O)oc2c1 | 2.9 µM | 8.23 | 12.3 µM | 28.5 | 10.3 µM | 23.9 | 3.28 µM | 15.9 |  |  |  |  |  |
| Cc1ccc(C)c(NC(=O)/C(=N\NC(N)=S)C(C#N)c2ccccc2)c1 (stereo not given) |  |  |  | > 100 |  |  |  |  | > 100 | > 100 | > 100 | > 100 | > 100 |
| O=C(O)c1nnsc1COCc1ccccc1 |  | > 100 |  | > 100 |  | > 100 |  | > 100 |  |  |  |  |  |
| Cc1ccc(S(=O)(=O)NCCN2c3nc4ccccc4cc3Sc3cc4ccccc4nc32)cc1 | 17.4 µM | > 100 | 4.79 µM | 20.5 | > 100 µM | > 100 |  |  |  |  |  |  |  |
| CC/C=C\C[C@H](O)C/C=C1/C(=O)C=C[C@@H]1C/C=C\CCCC(N)=O | 2.17 µM | 5.54 |  |  | 1.72 µM | 5.24 | 2.15 µM | 5.36 |  |  |  |  |  |
| Cc1cc(O)cc(C)c1/C=C/c1cncc(C(=O)N(C)C)c1 | > 25 µM | > 25 | > 25 µM | > 25 | > 25 µM | > 25 | > 25 µM | > 25 |  |  |  |  |  |
| CC1(C)C(=O)/C(=C\c2ccco2)C[C@]2(C)[C@H]3CC=C4[C@@H]5C[C@](C)(C(=O)O)CC[C@]5(C)CC[C@@]4(C)[C@]3(C)CC[C@@H]12 | 9.46 µM | 25.4 | 13.2 µM | 27.3 | 12.1 µM | 30.3 | 3.93 µM | 23.1 |  |  |  |  |  |
| Nc1ncnc2c1ncn2C1OC(C(=O)O)C(O)C1O (stereo not given) |  | > 100 |  | > 100 |  | > 100 |  | > 100 |  |  |  |  |  |
| NC(=O)c1ccccc1NC(=O)C(=O)C(c1cnc2ccc([N+](=O)[O-])cc2n1)[N+](=O)[O-] (stereo not given) |  | > 100 |  | > 100 |  | > 100 |  | > 100 |  |  |  |  |  |
| OCC1OC(N2C=C(c3nc4ccccc4s3)C3C=CC=CC32)C(O)C1O (stereo not given) | 9.55 µM | 27.5 | 8.08 µM | 17.8 | 12 µM | 24.5 | 8.59 µM | 42.4 |  |  |  |  |  |
| CCC(=O)N1C/C(=C/c2ccc(OC)cc2)C(=O)/C(=C/c2ccc(OC)cc2)C1 | 1.88 µM | 3.5 | 1.62 µM | 3.1 | 1.23 µM | 4.42 | 2.17 µM | 7.94 |  |  |  |  |  |
| O=C(Nc1ccc(Br)cc1)c1cc(Br)cc(Br)c1O | 3.08 µM | 14.4 | 2.89 µM | 12.4 | 2.27 µM | 6.09 | 2.65 µM | 8.82 |  |  |  |  |  |
| Cc1ccc(-c2cc3nc(-c4ccccc4)nc(C(Cl)Cl)n3n2)cc1 | 15.2 µM | > 50 | 0.911 µM | 2.19 | 1.14 µM | 2.71 | 0.781 µM | 2.05 |  |  |  |  |  |
| O=C(N/N=C/c1ccc(F)cc1)c1[nH]c2ccc(I)cc2c1-c1ccccc1 | 2.15 µM | 22.9 | 0.338 µM | 1.34 | 0.162 µM | 0.348 | 0.541 µM | > 86.4 |  |  |  |  |  |
| CCCCc1cc(O)ccc1O | 6.12 µM | > 100 | 11.5 µM | 45.4 | 22 µM | 62.1 | 10.5 µM | > 100 |  |  |  |  |  |
| NC(N)=N/N=C/c1c(-c2cc(Cl)sc2Cl)nc2n1CCS2 | 8.51 µM | 17.3 | 7.43 µM | 15.2 | 11.1 µM | 19.7 | 8.2 µM | 15.2 |  |  |  |  |  |
| N#C/C(=C(\O)C(=O)O)c1ccc(-c2cccc3ccccc23)cc1 |  | > 100 |  | > 100 |  | > 100 |  | > 100 |  |  |  |  |  |
| COc1ccc([N+](=O)[O-])c2c(NCC(O)CO)ccnc12 (stereo not given) |  | 56 |  | 90.1 |  | > 100 |  | > 100 |  |  |  |  |  |
| O=S(=O)(O)c1ccc2cc(N=Nc3cc(S(=O)(=O)O)c4cccnc4c3O)ccc2c1 |  | > 100 |  | > 100 |  | > 100 |  | > 100 |  |  |  |  |  |
| COC(=O)c1ccc2c(c1)c1c(C)c3cnccc3c(C)c1n2C | 0.247 µM | 3.54 | 0.075 µM | 0.763 | 0.0585 µM | 1.09 | 0.0579 µM | 4.06 |  |  |  |  |  |

| SMILES | GI50 (BT-549 breast) | TGI (BT-549 breast) [µM] | GI50 (SF-539 CNS) | TGI (SF-539 CNS) [µM] | GI50 (MDA-MB-435) | TGI (MDA-MB-435) [µM] | GI50 (PC-3 prostate) | TGI (PC-3 prostate) [µM] | TGI (HOP-18 NSCLC) [µM] | TGI (DMS 273 small cell lung) [µM] | TGI (KM20L2 colon) [µM] | TGI (M19-MEL melanoma) [µM] | TGI (DMS 114 small cell lung) [µM] |
| --- | --- | --- | --- | --- | --- | --- | --- | --- | --- | --- | --- | --- | --- |
| Cc1ccc(S(=O)(=O)ON/N=C2/C3OC3[C@@H]3CCCC[C@H]23)cc1 (stereo not given in full) |  |  |  | > 100 |  |  |  |  | > 100 | > 100 | > 100 | > 100 |  |
| CCN(CC)CC(C)Nc1ccc(C)c2sc3ccccc3c(=O)c12 (stereo not given) | 7.14 µM | 21 | 3.2 µM | 12.7 | 3.37 µM | 11.9 | 3.6 µM | 16.6 |  |  |  |  |  |
| O=Nc1c2cccnc2n2nnc3ccc(Cl)cc3c12 | 3.57 µM | 12.3 | 3.68 µM | 10.5 | 2.65 µM | 7.99 | 1.09 µM | 7.98 |  |  |  |  |  |
| OCCCNCc1ccccn1 |  | > 100 |  | > 100 |  | > 100 |  | > 100 |  |  |  |  |  |
| CCOC(=O)/C=C/c1ccc(C(=O)OCC)[nH]1 | 6.76 µM | > 100 | 5.91 µM | 42.5 | 0.393 µM | 2.29 | 4.7 µM | > 100 |  |  |  |  |  |
| c1cc(-c2sc(-c3ccncc3)c(-c3ccncc3)c2-c2ccncc2)ccn1 |  | 42 |  | 35 |  | 33.4 |  | 57.4 |  |  |  |  |  |
| CCOC(=O)/C(C1=CC(=O)C(=O)c2ccccc21)=C(/C)NCc1ccccc1 | 3.29 µM | 6.18 | 1.06 µM | 2.65 | 0.226 µM | 0.476 | 1.23 µM | 2.48 |  |  |  |  |  |
| CN(C)CCNC(=O)c1cccc(CO)c1[N+](=O)[O-] |  | > 100 |  | > 100 |  | > 100 |  | > 100 |  |  |  |  |  |
| CN(C)CCNc1cccc2sc3ccc(O)cc3c(=O)c12 | 9.2 µM | 23.5 | 1.77 µM | 4.01 | 1.49 µM | 3.16 | 2.44 µM | 13.4 |  |  |  |  |  |
| OC1CCC(Oc2cccc3cnc(Nc4ccc5nc[nH]c5c4)nc23)CC1 (stereo not given) | 0.22 µM | 0.906 | 0.215 µM | 0.708 | 0.612 µM | 12.1 | 0.254 µM | 20.7 |  |  |  |  |  |
| O=C1OCC2=Nc3cccc4cccc(c34)N12 |  | > 100 |  | > 100 |  | > 100 |  | > 100 |  |  |  |  |  |
| O=[N+]([O-])/C=C\c1ccc2c(c1)OCO2 | 2.15 µM | 4.8 | 3.08 µM | 9.35 | 2.16 µM |  | 2.62 µM | 7.34 |  |  |  |  |  |
| OC1CCC(C2C3CCCCC3C3CCCCC3C2C2CCC(O)CC2)CC1 (stereo not given) |  | 8.87 |  | 75.5 |  | 24.6 |  | > 100 |  |  |  |  |  |
| Cc1ccc2c(c1)sc(-c1ccc(N(C)C)cc1)[n+]2C | 0.464 µM | 8.08 | 2.56 µM | 14.1 | 0.879 µM | 13 | 0.677 µM | 9.23 |  |  |  |  |  |
| COC1C(=O)CCC2(CO2)C1(O)C1(C)OC1CCC(C)C (stereo not given) |  | > 100 |  | > 100 |  | > 100 |  | > 100 |  |  |  |  |  |
| C=C1C(O)C2C(=C(CC(C)C)C13CC3)C(=O)C(C)(C)C2OC (stereo not given) | > 100 µM | > 100 | > 100 µM | > 100 | > 100 µM | > 100 | > 100 µM | > 100 |  |  |  |  |  |
| COC(=O)/C(=N/NC(C)(C)C)C(C(=O)C=C(C)C)C(=O)C(=O)Nc1ccc(Cl)cc1C (stereo not given) |  |  |  | > 100 |  |  |  |  |  |  | > 100 | > 100 | > 100 |
| ClCCn1cnc2c(SCc3ccccc3)ncnc21 | 0.685 µM | > 100 | 8.77 µM | > 100 | 3.47 µM | > 100 | 0.356 µM | > 100 |  |  |  |  |  |
| O=C1/C(=C\c2cccs2)Oc2ccccc21 |  | > 100 |  |  |  | > 100 |  | > 100 |  |  |  |  |  |
| Cn1cnc([N+](=O)[O-])c1Sc1ncnc2nc[nH]c12 | 12.2 µM and 7.26 µM | > 100 | 4.81 µM and 3.26 µM | > 100 | 2.68 µM and 4.37 µM | > 100 | 25.6 µM and 45.9 µM | > 100 |  |  |  |  |  |
| CCN(CC)C(=S)SSC1CCCCC1 | 19 µM | 46.5 | 15.3 µM | 31.7 | 15 µM | 33.1 | 17.8 µM | 42.6 |  |  |  |  |  |
